The target of one assay is NQO1 (Homo sapiens, UniProt P15559). As to the kind of experiment: In vitro NQO1 enzyme activity assay (cytochrome C reduction). In kind it is biochemical. As to conditions: NQO1 2 ng, Compound 0.2 μM. As for the experimental part: In order to evaluate the enzymatic activities of compounds on NQO1, the experiments were performed as follows:
A compound to measure NQO1 enzyme activity was dissolved in DMSO to prepare a 10 mM stock solution, which was then diluted with DMSO to prepare a working solution at a concentration of 250 μM. For an enzyme reaction solution, 50 μL of 1.54 mM cytochrome C solution was added to 900 μL of 50 mM Tris-HCl (pH 7.5) solution containing 0.14% BSA, and then the prepared working solution at 250 μM was added. After adding 20 μL of 100 ng/ml NQO1 protein, […] solution was added so as to adjust the total volume to 1 mL, and then the change of absorbance was measured at 550 nm for 10 minutes. The change of absorbance was measured at 550 nm for 10 minutes using 1 mL cuvette. The reaction rate was observed through the increase in absorbance as cytochrome C was reduced at 550 nm for 10 minutes, to obtain an absorbance value, and the activity for NQO1 was measured as the reduced amount of cytochrome C (nmol reduced cytochrome C/min/μg NQO1 protein).
Absorption coefficient of Cytochrome C: 21.1 (μmol/mL)-1 cm^−1
Equipment=Cary 100 UV-Vis Spectrophotometer
Chain of NQO1 (P15559 whole entry, species assumed): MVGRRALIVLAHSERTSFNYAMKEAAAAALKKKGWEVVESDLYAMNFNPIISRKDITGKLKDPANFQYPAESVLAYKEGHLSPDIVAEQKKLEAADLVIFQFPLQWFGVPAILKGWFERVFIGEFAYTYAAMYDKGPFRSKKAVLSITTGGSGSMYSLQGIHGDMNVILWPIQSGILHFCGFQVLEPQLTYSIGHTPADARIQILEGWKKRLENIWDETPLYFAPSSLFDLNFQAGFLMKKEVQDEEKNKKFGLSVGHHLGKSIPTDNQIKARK
Regarding `CC(C)Oc1nn(-c2ccccc2)c2c1C(=O)C(=O)c1ccccc1-2` [Compound 2], the “NQO1 Activity” value is reported as 3531 nmol of reduced Cytochrome C/min/μg NQO1 Protein.

In the case of `CCn1c(=O)c2c(n1-c1ccccc1)-c1ccccc1C(=O)C2=O` [Compound 7], the “NQO1 Activity” value is given as 2246 nmol of reduced Cytochrome C/min/μg NQO1 Protein.

In the case of `CCOc1nn(-c2ccccc2)c2c1C(=O)C(=O)c1ccccc1-2` [Compound 8], the “NQO1 Activity” value is given as 3768 nmol of reduced Cytochrome C/min/μg NQO1 Protein.

For `CC(C)Cn1c(=O)c2c(n1-c1ccccc1)-c1ccccc1C(=O)C2=O` [Compound 9], the “NQO1 Activity” value is listed as 2474 nmol of reduced Cytochrome C/min/μg NQO1 Protein.

For `CC(C)COc1nn(-c2ccccc2)c2c1C(=O)C(=O)c1ccccc1-2` [Compound 10], the “NQO1 Activity” value is given as 3455 nmol of reduced Cytochrome C/min/μg NQO1 Protein.

As for `CC(C)CCn1c(=O)c2c(n1-c1ccccc1)-c1ccccc1C(=O)C2=O` [Compound 11], the “NQO1 Activity” value was 2839 nmol of reduced Cytochrome C/min/μg NQO1 Protein.

For the compound `CC(C)CCOc1nn(-c2ccccc2)c2c1C(=O)C(=O)c1ccccc1-2` [Compound 12], the “NQO1 Activity” value is 2981 nmol of reduced Cytochrome C/min/μg NQO1 Protein.

As for `CC(C)n1c(=O)c2c(n1-c1ccccc1)-c1ccccc1C(=O)C2=O` [Compound 13], the “NQO1 Activity” value is 2137 nmol of reduced Cytochrome C/min/μg NQO1 Protein.

Turning to `COc1nn(-c2ccc(C(F)(F)F)cc2)c2c1C(=O)C(=O)c1ccccc1-2` [Compound 18], the “NQO1 Activity” value is on record as 4232 nmol of reduced Cytochrome C/min/μg NQO1 Protein.

As to `COc1nn(-c2ccc(F)cc2)c2c1C(=O)C(=O)c1ccccc1-2` [Compound 19], the “NQO1 Activity” value is listed as 4303 nmol of reduced Cytochrome C/min/μg NQO1 Protein.

As to `Cn1c2c(c(=O)n1-c1ccccc1)C(=O)C(=O)c1ccccc1-2` [Compound 20], the “NQO1 Activity” value is listed as 568 nmol of reduced Cytochrome C/min/μg NQO1 Protein.

Turning to `Cn1c(=O)c2c(n1-c1ccccc1)-c1ccc(F)cc1C(=O)C2=O` [Compound 21], the “NQO1 Activity” value was 1426 nmol of reduced Cytochrome C/min/μg NQO1 Protein.

Regarding `COc1cn(-c2ccccc2)c2c1C(=O)C(=O)c1cc([N+](=O)[O-])ccc1-2` [Compound 23], the “NQO1 Activity” value is reported as 456 nmol of reduced Cytochrome C/min/μg NQO1 Protein.

On to `COc1nn(-c2ccccc2)c2c1C(=O)C(=O)c1cc(N)ccc1-2` [Compound 24], for which the “NQO1 Activity” value is on record as 4336 nmol of reduced Cytochrome C/min/μg NQO1 Protein.

On to `COc1cn(-c2ccccc2)c2c1C(=O)C(=O)c1cc(Br)ccc1-2` [Compound 25], for which the “NQO1 Activity” value is listed as 1676 nmol of reduced Cytochrome C/min/μg NQO1 Protein.

Still in this assay, the particulars now being: NQO1 2 ng, Compound 5 μM.
On to `O=C1C(=O)c2c(n(-c3ccccc3)[nH]c2=O)-c2ccccc21` [Compound 1], for which the “NQO1 Activity” value is listed as 180 nmol of reduced Cytochrome C/min/μg NQO1 Protein.

Consider `CC(C)n1c(=O)c2c(n1C)-c1ccccc1C(=O)C2=O` [Compound 3], for which the “NQO1 Activity” value is recorded as 3066 nmol of reduced Cytochrome C/min/μg NQO1 Protein.

Take `Cn1c(=O)c2c(n1-c1ccccc1)-c1ccccc1C(=O)C2=O` [Compound 5]: the “NQO1 Activity” value was 2602 nmol of reduced Cytochrome C/min/μg NQO1 Protein.

These data come from patent US20220354825A1, “PHARMACEUTICAL COMPOSITION FOR PREVENTION OR TREATMENT OF INFLAMMATORY DISEASES COMPRISING NAPHTHOQUINONE DERIVATIVE” (LMITO THERAPEUTICS INC., priority 2019, published 2022).
